row,Structure (SMILES),melting point [°C]
1,O=[N+]([O-])c1cccnc1Cc1ccccc1,72
2,Cc1ccc(S(=O)(=O)OCCC2CCc3ccccc3O2)cc1 (stereo not given),57 to 59
3,COc1cc(C(=O)c2c(C)c(C(=O)O)c3ccccn23)ccc1[N+](=O)[O-],215
4,COCc1c(C(=O)OC(C)C)ncc2[nH]c3ccc(CCc4ccc(Cl)cc4)cc3c12,149 to 151
5,CCCCCCCCCCCCCCC1CC1C(=O)O (stereo not given),62 to 64
6,CC(C)(C)c1cc2c(c(C(C)(C)C)c1)OP(OC1CC(C)(C)N(OC3CCCCC3)C(C)(C)C1)Oc1c(cc(C(C)(C)C)cc1C(C)(C)C)C2,140 to 144
7,CCOC(=O)c1cnc2onc(C)c2c1N(CS(=O)(=O)c1ccc(OC)cc1)c1cccnc1,128 to 130
8,CC(C(N)=O)c1ccc(-c2cn3ccccc3n2)cc1 (stereo not given),219 to 220
9,CC(C)[C@@H](CO)NS(=O)(=O)c1ccc(Cl)cc1,83 to 85
10,COc1nc2cc(C(c3ccccc3)n3ccnc3)ccc2[nH]1 (stereo not given),110
11,CC1(c2ccccc2)C(=O)Nc2cc(Cl)cc(Cl)c2C1=O (stereo not given),222 to 225
12,CCOC(=O)c1nc2sc3c(c2c(=O)[nH]1)CCCC3,207 to 209
13,CCc1cc2c(s1)-n1c(C)nnc1C(CCCC(=O)O)N=C2c1ccc(Cl)cc1 (stereo not given),185 to 187
14,Cc1nn(C)c(F)c1C(=O)Nc1ccccc1C(C)CC(C)(C)C (stereo not given),78 to 80
15,COc1cc(OC)nc(-n2c(S(C)(=O)=O)nc3ccccc32)n1,114 to 117
16,CN1CC(CCCCN2CCN(c3ccccc3)CC2)OC1=O (stereo not given),85 to 88
17,COC(=O)CCC1(CCC(=O)OC)c2cc(N(c3ccccc3)c3cccc(C)c3)ccc2-c2ccc(N(c3ccccc3)c3cccc(C)c3)cc21,159 to 160
18,Cc1cnc(N)cc1C(c1cc(F)ccc1F)S(=O)(=O)c1ccc(Cl)cc1 (stereo not given),188 to 189
19,Cc1cccc2nc3c(nc12)C=CCC3=O,133 to 135
20,COC1CN(C(=O)c2cc(-c3ccccc3)c(=O)n3nc(C)c4ccsc4c23)C1,169 to 170
21,CC1(C)CCC(C)(C)c2cc(-c3ccc(O)c(-c4ccc(C(=O)O)cc4)c3)ccc21,264 to 267
22,CCCC[C@H](NC(=O)C(CS)C(F)(F)F)C(=O)O (stereo not given in full),96 to 98

row,Structure (SMILES),melting point [°C]
1,CCc1cc(C2=CCN(CCCC(O)c3ccc(F)cc3)CC2)[nH]n1 (stereo not given),140 to 142
2,Nc1nc(Cl)c2ccccc2n1,275 to 278
3,O=C1CCC(c2ccc3[nH]c(-c4ccsc4)cc3c2)=NN1,325 to 333
4,CCCNC(=O)Nc1nc(-c2cc(C)cc(C)c2)c(-c2ccncc2)s1,128 to 130
5,CC(C)Oc1cc(CCC(=O)NS(=O)(=O)C(C)C)n(Cc2ccc(Cl)cc2Cl)n1,135 to 136
6,COc1ccc(NC(=O)N(Cc2ccccn2)Cc2ccc(F)cc2F)c(NC(=O)c2cc(C(C)(C)C)c(O)c(C(C)(C)C)c2)c1,176 to 178
7,COC(=O)c1ccc(-c2ccc(-c3ccccc3)c(-c3ccc4c(c3)C(C)(C)CCC4(C)C)c2)cn1,160 to 162
8,COc1cc2nc(N3CCN(C(=O)C=Cc4ccc(OC)c(OC)c4OC)CC3)nc(N)c2cc1OC,263 to 264
9,CCC(=O)Nc1cccc2c1C(=O)N(C1(C)CCC(=O)NC1=O)C2=O (stereo not given),222 to 224
10,CC(C)c1cc(Br)cc(C(C)C)c1N=C(c1ccccc1)c1ccccc1,114
11,O=C(c1ccc(Cl)cc1)C(Cc1nc[nH]n1)c1ccc(Cl)cc1Cl (stereo not given),109 to 111
12,CC(=O)NC1=C(O)CC(C(=O)N(C)C)CC1=O (stereo not given),162 to 164
13,COc1cc2c3c(ccc([N+](=O)[O-])c3c1[N+](=O)[O-])C(=O)N(O)C2=O,272 to 273
14,COC(=O)CNCc1ccc(OCc2ccccc2)cc1,57 to 58
15,CCCCCS(=O)(=O)NC(=O)CCc1cc(OCc2nnc(C)o2)nn1Cc1ccc(Cl)cc1Cl,156 to 158
16,CN1CC[C@@H](c2c(O)cc(O)c3c(=O)cc(-c4ccccc4Br)oc23)[C@@H]1CO,235 to 237
17,CCc1nnc(NS(=O)(=O)c2ccc(NC(C)=O)cc2)s1,197 to 198
18,CN(Cc1ccccc1)c1ncnc2c(N3CCS(=O)CC3)nc(N3CCNCC3)nc12,214 to 215
19,O=C(c1ccccc1)c1cnn2c(-c3cccc(N4CCCC4=O)c3)ccnc12,173 to 174
20,Cc1nc2sccn2c(=O)c1CCN1CCC(=C(c2ccc(F)cc2)c2ccc(F)cc2)CC1,146
21,COc1ccnc(NC(N)=S)c1,214 to 217

# The next lines start with the values.
row,melting point [°C],Structure (SMILES)
1,211 to 213,Cc1nc(Sc2cccc(C(=O)O)n2)sc1CC(=O)O
2,148 to 149,O=C1CCC(c2ccc(OCC3CO3)c(Cl)c2)=NN1 (stereo not given)
3,182 to 183,CCN(CC)c1ccc(C2(c3c(C)n(CCOc4ccccc4)c4ccccc34)OC(=O)c3ccccc32)c(C)c1 (stereo not given)
4,264 to 265,Cc1cc[nH]c(=O)c1NC(=O)c1ccccc1
5,79,CC1(C2=C(O)C(=O)c3ccccc3C2=O)CCCCC1
6,182 to 184,N#Cc1c[nH]cc1-c1ccc(Cl)cc1C(=O)c1ccccc1Cl
7,340 to 345,N#CC(=C=Nc1nc2ccccc2[nH]1)C#N
8,129 to 131,Cc1ccc(S(=O)(=O)n2ccc3cc(C#N)ccc32)cc1
9,152 to 153,CNc1nc(C(=O)O)ccc1C(=O)OC
10,107 to 109,CCCCCCCCCCOc1cc(OCCCOc2ccc(OCc3ccccc3)cc2)cc(C(=O)O)c1
11,195 to 196,O=C1C(=O)c2ccccc2C2=C1SCC1(CCN(CC(O)Cc3ccc(Cl)cc3)CC1)O2 (stereo not given)
12,112,CCCCCCCCc1ccc(CCC(COC(C)=O)(COC(C)=O)NC(C)=O)cc1
13,125 to 126,COc1cc(OCCCCc2cn(-c3ccc(C(F)(F)F)cn3)nc2C(C)C)ccc1CCC(=O)O
14,148,CN(C(=O)c1ccccc1OCC(=O)O)c1ccccc1
15,118 to 119,CCCCC[C@H]1CC[C@H](c2ccc(C#C[Si](C)(C)C)nn2)CC1
16,47 to 50,CCOC(=O)CC(O)CCCCCNC(=O)OCc1ccccc1 (stereo not given)
17,243 to 244,N#Cc1ccc(Nc2nc(Cl)nc(Cc3c(Cl)cccc3Cl)n2)cc1
18,192 to 195,COc1nc(NC(=O)NS(=O)(=O)c2ccccc2C(=O)OC(C)C)nc(OC)n1
19,66 to 67,CCCCCCCCCCCCOc1ccc(C(C)=O)o1

row,melting point [°C],Structure (SMILES)
1,199 to 201,COc1ccc(C=C2C(=O)c3cc(O)ccc3OC2c2ccc(OC)cc2)cc1 (stereo not given)
2,84 to 87,CCOC(=O)C(C#N)=NOS(=O)(=O)c1ccc(C)cc1
3,145,CCCCCCCCCCS(=O)(=O)NC(=O)c1cnc(C(N)=O)c(OC)c1
4,217 to 219,O=C(NCc1ccc(Cl)cc1)c1cnc2sc(C(=O)N3CCOCC3)cc2c1O
5,135 to 137,C[C@@H]1Cc2cc(Cl)ccc2O[C@H]1c1ccc(Cl)cc1 (relative stereo)
6,72,O=C(O)c1cccc(OCCCCCCc2cccc(OCc3ccccc3)c2OCc2ccccc2)c1
7,89 to 90,Cc1ccc(-n2cccc2)c(N)c1
8,129 to 132,CC1(C)CC(=O)c2c(C3CCCCC3)sc(C#N)c2C1
9,176 to 178,Cc1ccc(-c2ncc(N3CCC(O)CC3)nc2-c2ccc(C)cc2)cc1
10,152 to 155,Clc1cccc(N2CCC3CCc4cnccc4C3=N2)c1 (stereo not given)
11,172 to 178,COc1cc(OC)cc(Oc2ncccc2OCCCc2ccncc2O)c1
12,> 250,CNC1Oc2cc(Cl)cc(-c3ccccc3Cl)c2O1 (stereo not given)
13,187,O=C(O)C12C3C4C5C(C1C53[N+](=O)[O-])C42[N+](=O)[O-] (stereo not given)
14,181 to 182,CCN1c2ncc(COc3cccc(C(=O)O)c3)cc2C(=O)N(C)c2ccc(Cl)nc21
15,53.5 to 54,COC(=O)CCCCc1ccc(C(=O)Cc2ccccc2)cc1
16,164 to 165,COCCN1CC(C(=O)O)N(S(=O)(=O)c2ccc(OC)cc2)Cc2ccccc21 (stereo not given)
17,248 to 250,O=C(O)CCCNc1ccc2c(NC(=O)CC3CCCCC3)c(Cl)ccc2n1
18,146 to 149,NS(=O)(=O)c1cc(C=O)cs1
19,67 to 68,Cc1nc(Cl)c(C)c(Cl)c1C

row,melting point [°C],Structure (SMILES)
1,250 to 253,O=c1cc(O)c2cccnc2n1Cc1ccccc1
2,157,O=[N+]([O-])c1c(NCCO)cc(C(O)CSCC(O)c2cc(NCCO)c([N+](=O)[O-])c(NCCO)c2)cc1NCCO (stereo not given)
3,179 to 181,Cc1c(NC(=O)C(CS)Cc2ccccc2)cccc1C(=O)O (stereo not given)
4,89,Cc1cccc(N2CCN(CCCOc3ccc4ccc(=O)oc4c3)CC2)c1C
5,192 to 193,COc1ccc(C=C2Cc3c(C)cc(C)c(O)c3C2=O)cc1
6,189 to 190,CCC(CC)O[C@@H]1C=C(C(=O)O)C[C@H](CC(O)CO)[C@H]1NC(C)=O (stereo not given in full)
7,196 to 198,C=C(CCC(C)C1CCC2C3=C(C(=O)CC21C)C1(C)CCC(=O)C(C)C1CC3O)C(C)C(=O)O (stereo not given)
8,78 to 82,CCCC(=O)C(=CNc1ccccc1COC(=O)c1ccccc1)C(=O)OCC
9,102 to 103,OCc1onc(-c2ccc(Cl)o2)c1-c1ccccc1
10,215 to 216,CC(=O)c1c(F)cc2c(=O)c(C(=O)O)cn(CCF)c2c1F
11,35 to 38,O=C(CS(=O)(=O)c1ccccc1)OC1CCCCC1
12,148 to 150,CC(C)(C)OC(=O)Nc1ccc(-c2cccc(F)c2)cc1NC(=O)CC(=O)c1cccc(C#N)c1
13,94 to 96,CCCn1c(SC)nc2sccc2c1=O
14,90 to 92,C=CCNc1nc(NCC(C)(C)C)c2scc(C)c2n1
15,> 300,O=C(O)c1cn(C2CC2)c2nc(N3Cc4ccccc4C3)c(F)cc2c1=O
16,201 to 203,NNc1cc(-c2ccnc(Nc3cccc(Cl)c3)n2)ccn1
17,50 to 54,O=C1C(c2cccc(Br)c2)n2cncc2CN1Cc1ccncc1 (stereo not given)
18,> 275,NC1CC(N)(C(=O)O)C2C(C(=O)O)C12 (stereo not given)
19,98 to 100,COc1cccc(CCNCCc2c[nH]cn2)c1

# — a melting point compilation (Tetko et al.; mined from patent text by program, amines drawn as free bases though some values may be those of a salt)
